Results published in ChEMBL document CHEMBL3822396 (J Med Chem, 2016).
Activity calls are given as the source filed them. No cut-off for these calls is given here.

What was measured:
[1] = Permeability of the compound; format: ADME; settings: not told; read-out: permeability
[2] = biological target: Mitogen-activated protein kinase 14 (Homo sapiens, UniProt Q16539)
[3] = biological target: Vascular endothelial growth factor receptor 2 (Homo sapiens, UniProt P35968)
Intestinal mucosa [4] = test: Inhibition of TNFalpha production in intestinal mucosa derived from Crohn's disease patient at 1 uM measured after 24 hrs by sandwich ELISA; format: functional, tissue-based; settings: Homo sapiens
Intestinal mucosa [5] = test: Inhibition of TNFalpha production in intestinal mucosa derived from ulcerative colitis patient at 1 uM measured after 24 hrs by sandwich ELISA; format: functional, tissue-based; settings: Homo sapiens
Intestinal mucosa [6] = test: Inhibition of IL6 production in intestinal mucosa derived from Crohn's disease patient at 1 uM measured after 24 hrs by sandwich ELISA; format: functional, tissue-based; settings: Homo sapiens
Intestinal mucosa [7] = test: Inhibition of IL6 production in intestinal mucosa derived from ulcerative colitis patient at 1 uM measured after 24 hrs by sandwich ELISA; format: functional, tissue-based; settings: Homo sapiens
[8] = Cmax in Sprague-Dawley rat at 2 mg/kg, po administered through cassette dosing as by LC-MS/MS analysis; format: ADME, organism-based; parameters: dose 2 mg/kg, route oral; settings: in vivo
[9] = AUC in Sprague-Dawley rat at 2 mg/kg, po administered through cassette dosing by LC-MS/MS analysis; format: ADME, organism-based; settings: in vivo

Vascular endothelial growth factor receptor 2, sequence (P35968 whole entry): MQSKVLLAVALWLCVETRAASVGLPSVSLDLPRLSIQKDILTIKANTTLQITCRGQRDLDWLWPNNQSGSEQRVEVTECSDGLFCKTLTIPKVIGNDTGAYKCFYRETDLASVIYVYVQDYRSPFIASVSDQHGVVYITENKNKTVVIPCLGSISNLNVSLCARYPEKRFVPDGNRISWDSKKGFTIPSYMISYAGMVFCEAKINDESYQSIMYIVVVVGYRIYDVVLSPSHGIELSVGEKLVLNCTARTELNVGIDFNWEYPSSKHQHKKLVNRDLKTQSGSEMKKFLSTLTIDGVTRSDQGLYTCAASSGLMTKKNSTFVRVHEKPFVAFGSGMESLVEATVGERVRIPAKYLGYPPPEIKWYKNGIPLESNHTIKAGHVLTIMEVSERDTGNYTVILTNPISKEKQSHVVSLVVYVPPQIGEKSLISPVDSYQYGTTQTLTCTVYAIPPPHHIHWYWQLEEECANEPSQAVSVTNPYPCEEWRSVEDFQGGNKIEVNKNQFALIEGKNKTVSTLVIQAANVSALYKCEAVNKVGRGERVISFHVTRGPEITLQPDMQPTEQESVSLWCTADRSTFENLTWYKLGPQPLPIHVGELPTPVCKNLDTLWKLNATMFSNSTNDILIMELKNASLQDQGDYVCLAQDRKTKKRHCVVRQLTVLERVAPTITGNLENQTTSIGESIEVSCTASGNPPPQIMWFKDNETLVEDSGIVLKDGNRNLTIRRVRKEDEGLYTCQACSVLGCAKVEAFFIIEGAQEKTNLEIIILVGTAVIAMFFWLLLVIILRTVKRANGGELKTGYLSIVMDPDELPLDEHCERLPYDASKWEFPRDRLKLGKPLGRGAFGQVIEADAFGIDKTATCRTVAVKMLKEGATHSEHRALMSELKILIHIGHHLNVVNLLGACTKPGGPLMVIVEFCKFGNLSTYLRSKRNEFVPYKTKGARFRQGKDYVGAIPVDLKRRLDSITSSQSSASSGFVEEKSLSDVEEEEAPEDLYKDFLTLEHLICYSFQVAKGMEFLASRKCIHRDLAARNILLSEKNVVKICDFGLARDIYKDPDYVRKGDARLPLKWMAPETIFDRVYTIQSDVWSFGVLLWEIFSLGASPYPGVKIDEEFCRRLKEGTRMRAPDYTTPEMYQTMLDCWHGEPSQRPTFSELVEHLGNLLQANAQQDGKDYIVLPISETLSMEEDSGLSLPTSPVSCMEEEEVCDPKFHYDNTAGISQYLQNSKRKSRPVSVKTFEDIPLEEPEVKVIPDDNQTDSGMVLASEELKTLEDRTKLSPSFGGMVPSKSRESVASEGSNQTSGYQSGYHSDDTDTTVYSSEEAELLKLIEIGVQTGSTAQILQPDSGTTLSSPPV
Mitogen-activated protein kinase 14, sequence (Q16539 whole entry): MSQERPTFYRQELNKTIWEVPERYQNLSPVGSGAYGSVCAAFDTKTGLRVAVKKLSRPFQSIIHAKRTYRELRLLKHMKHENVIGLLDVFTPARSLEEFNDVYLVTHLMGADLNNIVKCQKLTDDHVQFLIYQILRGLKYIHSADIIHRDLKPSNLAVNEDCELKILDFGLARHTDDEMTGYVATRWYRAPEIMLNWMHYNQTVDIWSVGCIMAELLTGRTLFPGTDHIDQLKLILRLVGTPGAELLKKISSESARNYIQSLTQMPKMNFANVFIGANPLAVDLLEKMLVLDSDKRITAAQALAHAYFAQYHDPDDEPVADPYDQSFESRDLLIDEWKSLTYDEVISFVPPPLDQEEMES

SMILES: Cc1ccc(O)cc1Nc1ccnc2ccccc12
- Papp [1]: 25 ×10⁻⁶ cm/s

SMILES: Cc1ccc(O)cc1Nc1ccnc2ccc(C(=O)NCC3CCOCC3)cc12
- Papp [1]: 1.5 ×10⁻⁶ cm/s
- IC50 [2]: > 5 µM
- IC50 [3]: > 5 µM

SMILES: COc1ccc2nccc(Nc3cc(O)ccc3C)c2c1
- Papp [1]: 23 ×10⁻⁶ cm/s

SMILES: C[C@]12C=CC(=O)C=C1CC[C@@H]1[C@@H]2[C@@H](O)C[C@@]2(C)[C@H]1CC[C@]2(O)C(=O)CO
- inhibition (Intestinal mucosa [4]): Active
- inhibition (Intestinal mucosa [5]): Active
- inhibition (Intestinal mucosa [6]): Active
- inhibition (Intestinal mucosa [7]): Active

SMILES: Cc1ccc(O)cc1Nc1ccnc2ccc(-c3cccnc3)cc12
- Papp [1]: 23 ×10⁻⁶ cm/s

SMILES: CC(C)S(=O)(=O)c1ccc2nccc(Nc3n[nH]c4ccc(F)cc34)c2c1
- Cmax [8]: 370 ng/mL
- IC50 [2]: > 5 µM
- AUC [9]: 1100 ng·h/mL
- IC50 [3]: > 5 µM

SMILES: CS(=O)(=O)c1ccc2nccc(Nc3n[nH]c4ccc(F)cc34)c2c1
- Cmax [8]: 500 ng/mL
- AUC [9]: 1700 ng·h/mL

SMILES: Cc1ccc(O)cc1Nc1ccnc2ccc(S(C)(=O)=O)cc12 [GW559768X]
- Papp [1]: 7.9 ×10⁻⁶ cm/s

SMILES: Cc1ccc(O)cc1Nc1ccnc2ccc(C(F)(F)F)cc12
- Papp [1]: 49 ×10⁻⁶ cm/s
